Key:
[1] = system: RPTE cells; assay: Annexin V and propidium iodide staining; type: cell-based, human; settings: TNF-a after loading with 0.1 mM CDME
Protocol: 3. The Annexin V Assay • Annexin V-propidium iodide (PI) staining was performed as described by the manufacturer (Annexin V Fluos kit directions, Roche Laboratories) one time after TNF-a stimulation. D. Cystine Binding Protein Assay
Lysosomal cystine loading of RPTE cells was accomplished by exposure to 0.1 mM or 0.25 CDME in normal REGM for 1 hour before treatment with or without apoptotic triggers.
Exposure of RPTE cells to TNF-a after cystine loading by exposure to 0.1 mM CDME and analysis by Annexin V and Propidium iodide staining yielded 4.3% Annexiv V positive cells and zero PI positive cells at 1 h after exposure, 9.5% and 1.7% at 3 hours and 25.3% and 9.1% at 6 hours. The proportion of necrotic RPTE cells increased with duration of exposure to CDME, but remained substantially less than the number of those that are apoptotic.

[2] = system: normal fibroblasts; assay: Lysosomal cystine content, cystine binding protein assay; type: cell-based, human
Protocol: Intracellular lysosomal free cystine was determined using a cystine binding protein (CBP) assay (Oshima et al, 1974 J. Biol. Chem., 249:6033-6039). CBP was procured from Riverside Scientific. The assay has a sensitivity of 0.1 μM. Total cell protein was determined by a modification of the Lowry method (Lowry O. et al 1951 J. Biol. Chem., 193:265-275). Statistical analyses were performed using paired t test for means with SSPS for Windows. Results are mean+/−1.0 SD (FIG. 3).
Normal fibroblast lysosomes were loaded with cystine by the addition of 0.5 mM cystine dimethylester (CDME, Sigma) to normal culture medium for 1 hour before treatment (Pisoni, R L, et al, 1992 Somat. Cell. Mol. Genet., 18:1-6). The cells were treated with apoptotic triggers, leaving CDME in the medium to prevent lysosomal cystine loss, and then analyzed for apoptosis.
The lysosomal cystine content of normal fibroblasts was also altered as follows. Normal fibroblasts also at passage 7-13 were pretreated with 0.5 mM CDME for 1 hour, increasing the cystine content of their lysosomes to the cystinotic range (0.47 to 1.95 nmol of cystine per mg of protein). […]
In another experiment, the cystine content was decreased in cystinotic cells from 2.3 to 0.5 nmols cystine/10^6 cells by pretreatment with MEA before incubation in cystine-free and serum-free Ham F12 medium. […] Cells were stained with CaspACE and analyzed. […]

[3] = system: black mice; assay: Toxicity study of CDME in mice; type: in vivo, mouse; settings: intraperitoneal injection, 500 μL in PBS
Protocol: CDME was evaluated in mice for cystine generation in response to varying doses as follows: A stock solution of CDME in PBS was prepared having a concentrations of 1.8 g CDME/500 μL PBS. The stock solution was diluted to generate solutions for administration. 500 μL of diluted solutions were injected intraperitoneally into black mice (body mass ˜0.03 kg). All injections were performed in duplicate.
Mice given effective dosages of 5,000 mg CDME/kg body mass or higher died. […] The CDME-injected mice contained close to 100-fold increases in intralysosomal cystine.

[4] = system: T-47D (ER+); assay: Apoptosis in breast cancer cell lines, CaspACE assay with flow cytometry; type: cell-based, human; settings: CDME 500 μM, 16 hours
Excerpt: (§1) The apoptotic effect of CDME was compared to that of tamoxifen using the CaspACE™ assay system (Promega) and conventional flow cytometry techniques.
(§2) All cell lines were obtained from the American Type Culture Collection, P.O. Box 1549, Manassas, Va., 20108 unless otherwise indicated. The cell lines studied were estrogen receptor-negative breast cancer cell lines MDA-MB-231 (ATCC Accession No. HTB-26) and MDA-MB-468 (ATCC Accession No. HTB-132) and estrogen receptor-positive breast cancer cell lines, MCF-7 (ATCC Accession No. HTB-22) and T-47D (ATCC Accession No. HTB-133).
(§3) All cell lines were grown on the bottom of 12-well flasks in Gibco RPMI-1640, until they reached the confluency of about 50%. After that, the medium was exchanged with DMEM (Sigma, D-5030), supplemented with 10% charcoal-treated FBS.
(§4) After four days (at confluency of about 75%), cells were treated by exposure to either CDME (500 μM) or tamoxifen (100 μM) or neither for 16 hours at 37° C. CaspACE™ assay analysis of the treated and control cells was performed as described in Example 2 and measured via flow cytometry. Note that the dosage of tamoxifen was a maximum positive control dose, higher than that normally administered for chemotherapy.

[5] = system: MCF-7 (ER+); assay: as above; type: cell-based, human; settings: CDME 500 μM, 16 hours
Excerpt: as §1, §2, §3, §4

[6] = system: MDA-MB-468 (ER−); assay: as above; type: cell-based, human; settings: CDME 500 μM, 16 hours
Excerpt: as §1, §2, §3, §4

[7] = system: MDA-MB-231 (ER−); assay: as above; type: cell-based, human; settings: CDME 500 μM, 16 hours
Excerpt: as §1, §2, §3, §4

[8] = system: human renal proximal tubule epithelial cells; assay: Effect of various compounds on apoptosis, CaspASE staining and FACS; type: cell-based
Protocol: Normal and cystinotic fibroblasts were purchased from the Coriell Mutant Cell Repository, and cultured in Coon modification of Ham F12 medium, supplemented with 10% fetal calf serum (FCS). Renal proximal tubule epithelial (RPTE; Biowhittaker Corp.) were cultured in renal epithelial basal medium supplemented with one Singlequots™ kit (Biowhittaker) per 500 mL to make renal epithelial growth media (REGM, Biowhittaker). Fibroblasts and RPTE were maintained in a 5% carbon dioxide, 95% air, humidified incubator at 37° C. (Thoene J. G. et al, 1976 J. Clin. Invest, 58:180-189).
Cultured human renal proximal tubule epithelial cells were incubated with various apoptotic compounds at a concentration of 0.5 mM for 16 hours. Following incubation, cells were stained with CaspASE. Fluorescence-activated cell sorting (Beckman Coulter Epics Elite) was used to determine the percentage of cells undergoing apoptosis from each treatment group.

COC(=O)[C@@H](N)CSSC[C@H](N)C(=O)OC [CDME, cystine dimethyl ester]
Annexin V positive cells ([1]; 1 h after exposure): 4.3% | PI positive cells ([1]; 1 h after exposure): zero | Annexin V positive cells ([1]; 3 hours): 9.5% | PI positive cells ([1]; 3 hours): 1.7% | Annexin V positive cells ([1]; 6 hours): 25.3% | PI positive cells ([1]; 6 hours): 9.1% | cystine content after treatment with CDME ([2]; increased from 0.4, before serum withdrawal): 1.3 nmols cystine/10^6 cells | cystine content after pre-exposure to CDME ([2]; normal content <0.1 nmol/mg protein, UV light experiment): 1.95 nmol/mg protein | effective dosage at which mice died [3]: ≥ 5,000 mg CDME/kg body mass | percent of apoptotic cells (±S.D.) [4]: 7.78 ± 4.19% | percent of apoptotic cells (±S.D.) [5]: 6.16 ± 1.80% | percent of apoptotic cells (±S.D.) [6]: 44.88 ± 13.52% | percent of apoptotic cells (±S.D.) [7]: 99.32 ± 0.22% | toxicity to RPTE cells ([8]; 0.5 mM (concentration employed in fibroblasts)): toxic | percentage of cells undergoing apoptosis ([8]; RPTE cells, method states 0.5 mM for 16 hours, CaspASE, FACS): 39.7%

— patent publication US8222008B2, “Methods and compositions for treating cancer” (The Administrators of The Tulane Educational Fund, priority 2003, dated 2012)
